Reference: US10703756B2, “Pyrrolo[2,3-D]pyrimidinyl, pyrrolo[2,3-B]pyrazinyl, pyrrolo[2,3-B]pyridinyl acrylamides and epoxides thereof” (Pfizer Inc., priority 2015, dated 2020)

How the values were obtained:
JAK3 enzyme [1] = target: T1, JAK3 enzyme (Homo sapiens, UniProt P52333); experiment: JAK Caliper Enzyme Assay at 4 μM ATP; assay type: biochemical
T1 sequence (P52333 1-1124): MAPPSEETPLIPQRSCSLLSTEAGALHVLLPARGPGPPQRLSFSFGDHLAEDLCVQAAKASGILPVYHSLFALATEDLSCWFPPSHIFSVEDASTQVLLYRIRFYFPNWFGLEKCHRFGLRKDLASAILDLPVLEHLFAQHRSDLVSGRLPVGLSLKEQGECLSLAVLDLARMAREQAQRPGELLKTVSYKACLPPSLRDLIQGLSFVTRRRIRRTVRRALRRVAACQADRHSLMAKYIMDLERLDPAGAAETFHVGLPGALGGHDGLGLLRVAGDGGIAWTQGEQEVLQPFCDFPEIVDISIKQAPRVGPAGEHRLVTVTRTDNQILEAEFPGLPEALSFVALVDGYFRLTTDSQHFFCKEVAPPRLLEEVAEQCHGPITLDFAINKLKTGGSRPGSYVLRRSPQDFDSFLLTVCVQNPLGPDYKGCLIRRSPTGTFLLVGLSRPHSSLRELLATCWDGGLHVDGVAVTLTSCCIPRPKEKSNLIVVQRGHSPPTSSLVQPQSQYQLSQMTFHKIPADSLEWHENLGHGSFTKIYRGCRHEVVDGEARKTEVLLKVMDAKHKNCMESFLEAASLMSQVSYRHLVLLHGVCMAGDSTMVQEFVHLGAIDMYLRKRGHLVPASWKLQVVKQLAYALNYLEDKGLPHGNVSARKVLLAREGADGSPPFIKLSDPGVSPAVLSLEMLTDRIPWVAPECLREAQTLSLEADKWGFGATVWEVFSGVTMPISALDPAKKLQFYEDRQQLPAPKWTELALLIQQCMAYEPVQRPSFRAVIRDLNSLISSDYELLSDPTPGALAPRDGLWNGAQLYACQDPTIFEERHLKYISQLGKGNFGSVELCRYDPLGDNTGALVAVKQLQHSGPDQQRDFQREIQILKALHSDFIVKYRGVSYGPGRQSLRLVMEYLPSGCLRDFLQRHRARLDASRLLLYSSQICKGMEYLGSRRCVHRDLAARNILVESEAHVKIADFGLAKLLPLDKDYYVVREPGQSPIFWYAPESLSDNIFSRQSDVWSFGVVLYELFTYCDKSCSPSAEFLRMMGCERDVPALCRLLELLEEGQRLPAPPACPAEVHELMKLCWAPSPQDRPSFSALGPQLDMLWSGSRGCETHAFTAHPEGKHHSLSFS
How it was run: (§1)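 Compound tested as 11-point half-log DMSO dilution series (top 600 μM in DMSO, a dilution-plate level). Enzyme level and time set for 20%-30% peptide phosphorylation; phosphorylated and unphosphorylated peptide separated and quantified by Caliper LC3000 mobility shift.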

JAK3 enzyme [2] = target: T1, JAK3 enzyme; experiment: JAK Caliper Enzyme Assay at 1 mM ATP; assay type: biochemical
How it was run: as §1

SMILES | IC50 (JAK3 enzyme [1]) [nM] | IC50 (JAK3 enzyme [2]) [nM]
C=CC(=O)N1CC[C@@H](Nc2cnc3[nH]cc(C(=O)NCC)c3n2)C1 [Example 234, 2-{[(3R)-1-acryloylpyrrolidin-3-yl]amino}-N-ethyl-5H-pyrrolo[2,3-b]pyrazine-7-carboxamide] | 17.9 | 2270
C=CC(=O)N1CC(Nc2cnc3[nH]cc(C(=O)NCC(C)C)c3n2)C2(CC2)C1 (centres unmarked) [Example 236, 2-[(5-acryloyl-5-azaspiro[2.4]hept-7-yl)amino]-N-(2-methylpropyl)-5H-pyrrolo[2,3-b]pyrazine-7-carboxamide] | 45.1 | 6550
C=CC(=O)N1C[C@H](C2CC2)[C@H](Nc2cnc3[nH]cc(C(=O)NCC)c3n2)C1 [Example 238, 2-{[(3S,4S)-1-acryloyl-4-cyclopropylpyrrolidin-3-yl]amino}-N-ethyl-5H-pyrrolo[2,3-b]pyrazine-7-carboxamide] | 9.48 | 1360
C=CC(=O)N1C[C@H](Nc2cnc3[nH]cc(C(=O)NCC)c3n2)[C@@](C)(C#N)C1 [Example 240, 2-{[(3R,4S)-1-acryloyl-4-cyano-4-methylpyrrolidin-3-yl]amino}-N-ethyl-5H-pyrrolo[2,3-b]pyrazine-7-carboxamide] | 10.9 | 4060
C=CC(=O)N1CC(Nc2cnc3[nH]cc(C(=O)NCC(F)(F)F)c3n2)C2(CC2)C1 (centres unmarked) [Example 242, 2-[(5-acryloyl-5-azaspiro[2.4]hept-7-yl)amino]-N-(2,2,2-trifluoroethyl)-5H-pyrrolo[2,3-b]pyrazine-7-carboxamide] | 62.1 | > 10000
C=CC(=O)N1CC(Nc2cnc3[nH]cc(C(=O)NCC)c3n2)C2(CC2)C1 (centres unmarked) [Example 244, 2-[(5-acryloyl-5-azaspiro[2.4]hept-7-yl)amino]-N-ethyl-5H-pyrrolo[2,3-b]pyrazine-7-carboxamide] | 82.3 | > 10000
C=CC(=O)N1C[C@H](Nc2cnc3[nH]cc(C(=O)NCCOC)c3n2)C[C@@H]1COC [Example 246, 2-{[(3R,5R)-1-acryloyl-5-(methoxymethyl)pyrrolidin-3-yl]amino}-N-(2-methoxyethyl)-5H-pyrrolo[2,3-b]pyrazine-7-carboxamide] | 7.79 | 1110
C=CC(=O)N1CC(Nc2cnc3[nH]cc(C(=O)NCCCC(F)(F)F)c3n2)C2(CC2)C1 (centres unmarked) [Example 249, 2-[(5-acryloyl-5-azaspiro[2.4]hept-7-yl)amino]-N-(4,4,4-trifluorobulyl)-5H-pyrrolo[2,3-b]pyrazine-7-carboxamide] | 75.3 | > 10000
C=CC(=O)N1C[C@H](Nc2cnc3[nH]cc(C(=O)NCC)c3n2)[C@](C)(C#N)C1 [Example 251, 2-{[(3R,4R)-1-acryloyl-4-cyano-4-methylpyrrolidin-3-yl]amino}-N-ethyl-5H-pyrrolo[2,3-b]pyrazine-7-carboxamide] | 5.12 | 1320
C=CC(=O)N1CC(Nc2cnc3[nH]cc(C(=O)NCCC(F)(F)F)c3n2)C2(CC2)C1 (centres unmarked) [Example 252, 2-[(5-acryloyl-5-azaspiro[2.4]hept-7-yl)amino]-N-(3,3,3-trifluoropropyl)-5H-pyrrolo[2,3-b]pyrazine-7-carboxamide] | 110 | > 10000
C=CC(=O)N1C[C@@H](CC)[C@@H](Nc2cnc3[nH]cc(C(=O)NCCOC)c3n2)C1 [Example 257, 2-{[(3R,4R)-1-acryloyl-4-ethylpyrrolidin-3-yl]amino}-N-(2-methoxyethyl)-5H-pyrrolo[2,3-b]pyrazine-7-carboxamide] | 55.3 | 6460
C=CC(=O)N1C[C@H](Nc2cnc3[nH]cc(C(=O)NCCOC)c3n2)C[C@H]1COC [Example 258, 2-{[(3R,5S)-1-acryloyl-5-(methoxymethyl)pyrrolidin-3-yl]amino}-N-(2-methoxyethyl)-5H-pyrrolo[2,3-b]pyrazine-7-carboxamide] | 6.23 | 1050
C=CC(=O)N1C[C@H](Nc2cnc3[nH]cc(C(=O)NCCOC)c3n2)[C@H](C2CC2)C1 [Example 259, 2-{[(3R,4R)-1-acryloyl-4-cyclopropylpyrrolidin-3-yl]amino}-N-(2-methoxyethyl)-5H-pyrrolo[2,3-b]pyrazine-7-carboxamide] | 180 | > 10000
C=CC(=O)N1C[C@H](Nc2cnc3[nH]cc(C(=O)NCC)c3n2)[C@H](C2CC2)C1 [Example 261, 2-{[(3R,4R)-1-acryloyl-4-cyclopropylpyrrolidin-3-yl]amino}-N-ethyl-5H-pyrrolo[2,3-b]pyrazine-7-carboxamide] | 259 | > 10000
C=CC(=O)N1C[C@H](Nc2cnc3[nH]cc(C(=O)NCC)c3n2)C[C@@H]1COC [Example 262, 2-{[(3R,5R)-1-acryloyl-5-(methoxymethyl)pyrrolidin-3-yl]amino}-N-ethyl-5H-pyrrolo[2,3-b]pyrazine-7-carboxamide] | 11.6 | 2180
C=CC(=O)N1C[C@@H](CC)[C@@H](Nc2cnc3[nH]cc(C(=O)NCC)c3n2)C1 [Example 263, 2-{[(3R,4R)-1-acryloyl-4-ethylpyrrolidin-3-yl]amino}-N-ethyl-5H-pyrrolo[2,3-b]pyrazine-7-carboxamide] | 52.4 | 6460
C=CC(=O)N1CCN(c2cnc3[nH]cc(C(=O)NCC(F)(F)F)c3n2)CC1(C)C [Example 286, 2-(4-acryloyl-3,3-dimethylpiperazin-1-yl)-N-(2,2,2-trifluoroethyl)-5H-pyrrolo[2,3-b]pyrazine-7-carboxamide] | 12.4 | 1020

Stronger by IC50 (JAK3 enzyme [1]), values ahead:

IC50 (JAK3 enzyme [1]) [nM] | IC50 (JAK3 enzyme [2]) [nM] | SMILES
4.31 | 798 | C=CC(=O)N1C[C@H](Nc2cnc3[nH]cc(C(=O)NCC)c3n2)C[C@H]1COCC [Example 250, 2-{[(3R,5S)-1-acryloyl-5-(ethoxymethyl)pyrrolidin-3-yl]amino}-N-ethyl-5H-pyrrolo[2,3-b]pyrazine-7-carboxamide]
3.82 | 651 | C=CC(=O)N1CCN(c2cnc3[nH]cc(C(=O)NCCCC(F)(F)F)c3n2)CC1(C)C [Example 272, 2-(4-acryloyl-3,3-dimethylpiperazin-1-yl)-N-(4,4,4-trifluorobutyl)-5H-pyrrolo[2,3-b]pyrazine-7-carboxamide]
3.79 | 857 | C=CC(=O)N1C[C@H](CC)[C@H](Nc2cnc3[nH]cc(C(=O)NCC)c3n2)C1 [Example 241, 2-{[(3S,4S)-1-acryloyl-4-ethylpyrrolidin-3-yl]amino}-N-ethyl-5H-pyrrolo[2,3-b]pyrazine-7-carboxamide]
3.78 | 757 | C=CC(=O)N1C[C@H](Nc2cnc3[nH]cc(C(=O)NCC)c3n2)C[C@H]1COC [Example 239, 2-{[(3R,5S)-1-acryloyl-5-(methoxymethyl)pyrrolidin-3-yl]amino}-N-ethyl-5H-pyrrolo[2,3-b]pyrazine-7-carboxamide]
3.34 | 829 | C=CC(=O)N1C[C@H](C2CC2)[C@H](Nc2cnc3[nH]cc(C(=O)NCCOC)c3n2)C1 [Example 247, 2-{[(3S,4S)-1-acryloyl-4-cyclopropylpyrrolidin-3-yl]amino}-N-(2-methoxyethyl)-5H-pyrrolo[2,3-b]pyrazine-7-carboxamide]
2.71 | 499 | C=CC(=O)N1CCN(c2cnc3[nH]cc(C(=O)N[C@@H]4C[C@H]4C(F)(F)F)c3n2)CC1 [Example 287, 2-(4-acryloylpiperazin-1-yl)-N-[(1R,2R)-2-(trifluoromethyl)cyclopropyl]-5H-pyrrolo[2,3-b]pyrazine-7-carboxamide]
2.49 | 501 | C=CC(=O)N1CCC(Nc2cnc3[nH]cc(C(=O)NC[C@H](C)CC(F)(F)F)c3n2)CC1C (stereo partly drawn) [Example 280, 2-[(1-acryloyl-2-methylpiperidin-4-yl)amino]-N-[(2R)-4,4,4-trifluoro-2-methylbutyl]-5H-pyrrolo[2,3-b]pyrazine-7-carboxamide]
2.41 | 479 | C=CC(=O)N1C[C@H](C)[C@H](Nc2cnc3[nH]cc(C(=O)NCCOC)c3n2)C1 [Example 264, 2-{[(3S,4S)-1-acryloyl-4-methylpyrrolidin-3-yl]amino}-N-(2-methoxyethyl)-5H-pyrrolo[2,3-b]pyrazine-7-carboxamide]
